Experimental data reported in PMC8760490, “Discovery of novel furanylbenzamide inhibitors that target oncogenic tyrosine phosphatase SHP2 in leukemia cells” (The Journal of Biological Chemistry, 2021).

Experiments:
Type in all cases: cell-based
BT-549 TNBC cells = test: TNBC cell viability (CellTiter-Glo), BT-549; details: Homo sapiens, BT-549; 72 h per text; 5 days per legend and method
Protocol: (§1) Inhibition of SHP2 has been reported to inhibit the growth of cancer cells including Kasumi-1 acute myeloid leukemia (AML) and KYSE-520 esophageal cancer cells ([30]). […] Thus, we treated two TNBC cell lines, BT-549 and MDA-MB-468, with SBI-4668 or the SHP2 allosteric inhibitor SHP099 at various concentrations and determined cell viability after 72 h, compared with the vehicle control (Fig. 4C). […] Next, we performed an 11-day colony formation assay with TNBC cells treated with SBI-4668 or SHP099 at 5, 10, or 20 μM (Fig. 4D).
(§2) Triple-negative breast cancer cell viability was assessed using the ATP-depletion assay CellTiter-Glo. Briefly, 2500 cells in 25 μl media (RPMI + 10% FBS + 1× penicillin–streptomycin [Omega Scientific]) were seeded per well of a 384-well tissue culture–treated plate (Greiner). About 25 nl of 1000× test compound were added using a Labcyte Echo acoustic dispenser, and the cells were incubated for 5 days before addition of 10 μl of CellTiter-Glo reagent as described by the manufacturer. Luminescence was detected on a BioTek Synergy 2 microplate reader, and the values normalized to those of vehicle (DMSO)-treated controls before being plotted using GraphPad Prism.

MDA-MB-468 TNBC cells = test: TNBC cell viability (CellTiter-Glo), MDA-MB-468; details: Homo sapiens, MDA-MB-468; 72 h per text; 5 days per legend and method
Protocol: as §1, §2

[1] = system: phospho-ERK1/2 (p-ERK1/2) in U-937 AML cells; test: p-ERK1/2 immunoblot, U-937; details: SBI-4668 1, 3, 10, 30 μM, RMC-4550 1 μM
Description: Oncogenic gain-of-function mutations in SHP2 drive leukemogenesis in a significant number of leukemia patients. However, because of their unique mechanism of action, the existing SHP2 allosteric inhibitors lack activity against the most common SHP2 oncogenic variants. Thus, we tested whether our inhibitors could inhibit the growth of leukemia cells expressing oncogenic SHP2 variants. […] Thus, we tested both SBI-4668 and RMC-4550 on U-937 AML cells, which harbor a G60R oncogenic mutation in SHP2. We treated cells with either SBI-4668 or RMC-4550 at various concentrations, ranging from 0.123 to 30 μM (Fig. 5A). […] We also assessed the effects of SBI-4668 and RMC-4550 on ERK1/2 activation in the SHP2 mutant U-937 cell line. Similar to the immunoblot experiments described for MOLM-13 cells above, U-937 AML cells were treated with either vehicle control (DMSO), SBI-4668 (1, 3, 10, or 30 μM), or with RMC-4550 (1 μM) for 24 h and processed for p-ERK1/2 immunoblot analysis (Fig. 5B).
Cells cultured in RPMI medium were treated as indicated in the legends to the figures. […] Densitometric quantitation of immunoblots was performed using Image Studio Lite Software (LI-COR). Changes of phosphorylated ERK1/2 to total ERK1/2 ratios are expressed as percentage of the vehicle-treated controls. […]

O=C(Nc1ccccc1)c1cc(-c2ccc(/C=C3\Sc4ccccc4C3=O)o2)ccc1O [SBI-4668, (Z)-2-Hydroxy-5-(5-((3-oxobenzo[b]thiophen-2(3H)-ylidene)methyl)furan-2-yl)-N-phenylbenzamide]
IC50 (BT-549 TNBC cells): 5.4 µM
IC50 (MDA-MB-468 TNBC cells): 2.5 µM
p-ERK1/2 levels, U-937, 24 h [1]: dose-dependently inhibited ERK1/2 activation
